How the values were obtained:
Type in all cases: in vivo, human
[1] = test system: severe dry skin condition of X-linked ichthyosis; assay: Topical treatment of X-linked ichthyosis skin under Hays Occlusive Chamber
chronic plaque psoriasis = assay: Topical treatment of chronic plaque psoriasis
Description: A subject, having chronic plaque psoriasis for 55 year duration resistant to all forms of topical therapy, topically applied N-acetyl-4-hydroxyphenyl-glycinamide 10% cream twice daily to a thick plaque of psoriasis on the right elbow. […] The clinical evaluation was judged to be a 75% improvement after five days of topical treatment. […] Clinical evaluation rated the improvement to be about 90%. Three patients having chronic plaque psoriasis resistant to most forms of topical therapy topically applied N-acetyl-4-acetoxyphenyl-glycinamide 5% cream (Example 24) twice daily to thick plaques of psoriasis. […] The clinical evaluation was judged to be an 80% improvement after one week of topical treatment. […] Clinical evaluation rated the improvement on three patients to be from 95 to 100%.

forearm skin = assay: Forearm skin thickness by micrometer calipers (skin changes associated with aging); settings: 10% cream twice daily to right forearm for four weeks; subject
Method: In one of the studies related to skin changes associated with aging, skin thickness was measured by micrometer calipers as follows: The skin was grasped with a 2×6 cm metal hinge; the internal faces of which were coated with emery cloth to prevent slippage, and manually squeezed to threshold subject discomfort. Combined thickness of two whole-skin layers including thickness of the two hinge leaves was measured with micrometer calipers. Thickness of the two hinge leaves was subtracted to determine the actual thickness of two whole-skin layers. Triplicate measurements on treated sites were conducted and an average number was used for calculation of the skin thickness. A subject, applied topically twice daily N-acetyl-4-hydroxyphenyl-glycinamide 5% cream to their left forearm for eight weeks. […] While there was no change in skin thickness of their right forearm, their left forearm had increased 49% in skin thickness as measured by the micrometer calipers (Example 1). […] While there was no change in skin thickness of their right forearm, their left forearm had increased 24% in skin thickness as measured by the micrometer calipers (Example 1). […] While there was no change in skin thickness of their left forearm, their right forearm had increased 25% in skin thickness as measured by the micrometer calipers (Example 1).

[2] = 5% cream twice daily, after one week, three patients

SMILES	conclusion: topical treatment of severe dry skin and symptomatic relief of congenital ichthyosis ([1]; 10% cream)	clinical appearance of treated site after stopping treatment ([1]; 10% cream one week under chamber, then another week without any further treatment)	clinical appearance of treated site ([1]; 10% cream, 1 cm^2 involved skin of back under Hays Occlusive Chamber, after one week, subject)	erythema and thickness of the plaques (chronic plaque psoriasis; 5% cream (Example 24) twice daily, after one week, three patients)	clinical evaluation, improvement (chronic plaque psoriasis; [2]) [%]	psoriatic scales (chronic plaque psoriasis; [2])	clinical appearance of treated area (chronic plaque psoriasis; 5% cream twice daily, after two weeks, three patients)	conclusion: topical treatment of psoriasis (chronic plaque psoriasis; cream twice daily)	appearance of treated forearm (forearm skin)	increase in skin thickness (forearm skin) [%]
COC(=O)CNc1ccc(O)cc1 [4-hydroxyphenyl-glycine methyl ester]	therapeutically effective	remained normal in clinical appearance	free of all evidence of ichthyosis	–	–	–	–	–	–	–
CC(=O)NC(=O)CNc1ccc(OC(C)=O)cc1 [N-acetyl-4-acetoxyphenyl-glycinamide]	–	–	–	diminished substantially	80	no evidence of any psoriatic scales	clinically normal	therapeutically effective	more firm, smooth, plump and minimally wrinkled when lifted	25

Reference: patent publication US6824786B2, “Compositions comprising phenyl-glycine derivatives” (priority 2001, dated 2004)
